Measurements from ChEMBL document CHEMBL1137682, “Synthesis, characterization and structure-activity relationship analysis of novel depsides as potential antibacterials” (2009).
In brackets after ≈: the same amount, converted by molar mass.

Columns and labels:
Format in all cases: functional
Staphylococcus aureus = assay: Antibacterial activity against Staphylococcus aureus ATCC 6538 after 24 hrs by MTT assay; conditions: ATCC 6538, 24 h
Bacillus subtilis = assay: Antibacterial activity against Bacillus subtilis ATCC 6633 after 24 hrs by MTT assay; conditions: ATCC 6633, 24 h
Escherichia coli = assay: Antibacterial activity against Escherichia coli ATCC 35218 after 24 hrs by MTT assay; conditions: ATCC 35218, 24 h
Pseudomonas aeruginosa = assay: Antibacterial activity against sPseudomonas aeruginosa ATCC 13525 after 24 hrs by MTT assay; conditions: ATCC 13525, 24 h
Enterococcus faecalis = assay: microbe, parasite or virus in culture; conditions: ATCC 9790, 24 h
Enterobacter cloacae = assay: Antibacterial activity against Enterobacter cloacae ATCC 13047 after 24 hrs by MTT assay; conditions: ATCC 13047, 24 h

Row | SMILES | MIC (Staphylococcus aureus) [µg/mL] | MIC (Bacillus subtilis) [µg/mL] | MIC (Escherichia coli) [µg/mL] | MIC (Pseudomonas aeruginosa) [µg/mL] | MIC (Enterococcus faecalis) [µg/mL] | MIC (Enterobacter cloacae) [µg/mL]
1 | CCOC(=O)Cc1ccccc1OC(=O)Cc1ccc(F)cc1 | 25 (≈ 79 µM) | 12.5 (≈ 39.5 µM) | 25 (≈ 79 µM) | > 50 | 6.25 (≈ 19.8 µM) | 12.5 (≈ 39.5 µM)
2 | COC(=O)Cc1ccccc1O | 6.25 (≈ 37.6 µM) | 12.5 (≈ 75.2 µM) | 12.5 (≈ 75.2 µM) | 25 (≈ 150 µM) | 12.5 (≈ 75.2 µM) | 6.25 (≈ 37.6 µM)
3 | COC(=O)Cc1ccccc1OC(=O)c1ccc(C)cc1 | 25 (≈ 87.9 µM) | 12.5 (≈ 44 µM) | 3.12 (≈ 11 µM) | 12.5 (≈ 44 µM) | > 50 | 6.25 (≈ 22 µM)
4 | CCOC(=O)Cc1ccccc1O | 12.5 (≈ 69.4 µM) | 6.25 (≈ 34.7 µM) | 25 (≈ 139 µM) | 12.5 (≈ 69.4 µM) | 25 (≈ 139 µM) | 12.5 (≈ 69.4 µM)
5 | COC(=O)Cc1ccccc1OC(=O)Cc1ccc(F)cc1 | 12.5 (≈ 41.3 µM) | 6.25 (≈ 20.7 µM) | 25 (≈ 82.7 µM) | 25 (≈ 82.7 µM) | 12.5 (≈ 41.3 µM) | 6.25 (≈ 20.7 µM)
6 | COC(=O)Cc1ccccc1OC(=O)Cc1ccc(Cl)cc1 | 3.12 (≈ 9.8 µM) | 12.5 (≈ 39.2 µM) | 6.25 (≈ 19.6 µM) | > 50 | 25 (≈ 78.4 µM) | 12.5 (≈ 39.2 µM)
7 | COC(=O)Cc1ccccc1OC(=O)Cc1ccc(Br)cc1 | 6.25 (≈ 17.2 µM) | 6.25 (≈ 17.2 µM) | > 50 | 25 (≈ 68.8 µM) | 6.25 (≈ 17.2 µM) | 3.12 (≈ 8.6 µM)
8 | CCOc1ccc(CC(=O)Oc2ccccc2CC(=O)OC)cc1OCC | 1.56 (≈ 4.19 µM) | > 50 | 1.56 (≈ 4.19 µM) | 3.12 (≈ 8.39 µM) | 3.12 (≈ 8.39 µM) | 3.12 (≈ 8.39 µM)
9 | COC(=O)Cc1ccccc1OC(=O)c1cccc([N+](=O)[O-])c1 | 1.56 (≈ 4.95 µM) | 0.78 (≈ 2.47 µM) | 3.12 (≈ 9.91 µM) | 6.25 (≈ 19.8 µM) | 1.56 (≈ 4.95 µM) | 12.5 (≈ 39.6 µM)
10 | COC(=O)Cc1ccccc1OC(=O)c1ccccc1Cl | 3.12 (≈ 10.3 µM) | > 50 | 25 (≈ 82 µM) | > 50 | 25 (≈ 82 µM) | > 50
11 | COC(=O)Cc1ccccc1OC(=O)Cc1ccc(OC)c(OC)c1 | > 50 | 25 (≈ 72.6 µM) | > 50 | 6.25 (≈ 18.1 µM) | > 50 | 6.25 (≈ 18.1 µM)
12 | COC(=O)Cc1ccccc1OC(=O)Cc1cccc(Br)c1 | > 50 | 1.56 (≈ 4.3 µM) | 6.25 (≈ 17.2 µM) | 25 (≈ 68.8 µM) | 25 (≈ 68.8 µM) | > 50
13 | COC(=O)Cc1ccccc1OC(=O)c1ccc(Cl)cc1 | > 50 | 25 (≈ 82 µM) | > 50 | 25 (≈ 82 µM) | 12.5 (≈ 41 µM) | 25 (≈ 82 µM)
14 | COC(=O)Cc1ccccc1OC(=O)c1cc(OC)cc(OC)c1 | > 50 | > 50 | 25 (≈ 75.7 µM) | 6.25 (≈ 18.9 µM) | > 50 | > 50
15 | CCOC(=O)Cc1ccccc1OC(=O)Cc1ccc(OC)c(OC)c1 | 25 (≈ 69.8 µM) | 12.5 (≈ 34.9 µM) | > 50 | 12.5 (≈ 34.9 µM) | > 50 | 6.25 (≈ 17.4 µM)
16 | CCOC(=O)Cc1ccccc1OC(=O)Cc1ccc(OCC)c(OCC)c1 | 3.12 (≈ 8.09 µM) | 12.5 (≈ 32.3 µM) | 1.56 (≈ 4.04 µM) | 3.12 (≈ 8.09 µM) | 1.56 (≈ 4.04 µM) | 3.12 (≈ 8.09 µM)
17 | CCOC(=O)Cc1ccccc1OC(=O)c1ccc(C)cc1 | > 50 | 25 (≈ 83.8 µM) | 3.12 (≈ 10.5 µM) | 12.5 (≈ 41.9 µM) | > 50 | 6.25 (≈ 20.9 µM)

Row | SMILES | MIC (Staphylococcus aureus) [µg/mL] | MIC (Bacillus subtilis) [µg/mL] | MIC (Escherichia coli) [µg/mL] | MIC (Pseudomonas aeruginosa) [µg/mL] | MIC (Enterococcus faecalis) [µg/mL] | MIC (Enterobacter cloacae) [µg/mL]
18 | CCOC(=O)Cc1ccccc1OC(=O)c1cccc([N+](=O)[O-])c1 | 3.12 (≈ 9.49 µM) | 0.78 (≈ 2.37 µM) | 3.12 (≈ 9.49 µM) | 6.25 (≈ 19 µM) | 1.56 (≈ 4.74 µM) | 6.25 (≈ 19 µM)
19 | CCOC(=O)Cc1ccccc1OC(=O)Cc1cccc(Br)c1 | > 50 | 1.56 (≈ 4.14 µM) | 6.25 (≈ 16.6 µM) | 25 (≈ 66.3 µM) | > 50 | > 50
20 | CCOC(=O)Cc1ccccc1OC(=O)Cc1cccc(OC)c1 | > 50 | > 50 | 25 (≈ 76.1 µM) | 6.25 (≈ 19 µM) | 12.5 (≈ 38.1 µM) | > 50
21 | CCOC(=O)Cc1ccccc1OC(=O)c1cc(OC)cc(OC)c1 | > 50 | > 50 | > 50 | 6.25 (≈ 18.1 µM) | 25 (≈ 72.6 µM) | 25 (≈ 72.6 µM)
22 | CCOC(=O)Cc1ccccc1OC(=O)Cc1ccc(Br)cc1 | 12.5 (≈ 33.1 µM) | 12.5 (≈ 33.1 µM) | > 50 | 25 (≈ 66.3 µM) | > 50 | 3.12 (≈ 8.28 µM)
23 | CCOC(=O)Cc1ccccc1OC(=O)Cc1cccc(Cl)c1 | 6.25 (≈ 18.8 µM) | 3.12 (≈ 9.39 µM) | 6.25 (≈ 18.8 µM) | > 50 | 6.25 (≈ 18.8 µM) | 25 (≈ 75.1 µM)
24 | CCOC(=O)Cc1ccccc1OC(=O)c1ccccc1Cl | 6.25 (≈ 19.6 µM) | > 50 | 6.25 (≈ 19.6 µM) | 25 (≈ 78.4 µM) | > 50 | > 50
25 | COC(=O)Cc1ccccc1OC(=O)Cc1cccc(Cl)c1 | 3.12 (≈ 9.8 µM) | 3.12 (≈ 9.8 µM) | > 50 | 12.5 (≈ 39.2 µM) | 12.5 (≈ 39.2 µM) | 25 (≈ 78.4 µM)
26 | COC(=O)Cc1ccccc1OC(=O)Cc1cccc(OC)c1 | 25 (≈ 79.5 µM) | > 50 | > 50 | 6.25 (≈ 19.9 µM) | > 50 | > 50
27 | CCOC(=O)Cc1ccccc1OC(=O)Cc1ccc(Cl)cc1 | 6.25 (≈ 18.8 µM) | 6.25 (≈ 18.8 µM) | > 50 | 25 (≈ 75.1 µM) | 12.5 (≈ 37.6 µM) | 6.25 (≈ 18.8 µM)
28 | CCOC(=O)Cc1ccccc1OC(=O)c1ccc(Cl)cc1 | > 50 | 25 (≈ 78.4 µM) | > 50 | > 50 | 25 (≈ 78.4 µM) | > 50
29 | NC[C@H]1O[C@H](O[C@H]2[C@H](O)[C@@H](O[C@H]3O[C@H](CO)[C@@H](O)[C@H](N)[C@H]3O)[C@H](N)C[C@@H]2N)[C@H](N)[C@@H](O)[C@@H]1O [BEKANAMYCIN] | 1.56 (≈ 3.23 µM) | 0.39 (≈ 0.807 µM) | 3.12 (≈ 6.46 µM) | 3.12 (≈ 6.46 µM) | 3.12 (≈ 6.46 µM) | 1.56 (≈ 3.23 µM)
30 | COC(=O)c1ccc(O)cc1 [METHYLPARABEN] | 6.25 (≈ 41.1 µM) | 6.25 (≈ 41.1 µM) | 6.25 (≈ 41.1 µM) | 6.25 (≈ 41.1 µM) | 12.5 (≈ 82.2 µM) | 25 (≈ 164 µM)
31 | CC1(C)S[C@@H]2[C@H](NC(=O)Cc3ccccc3)C(=O)N2[C@H]1C(=O)O [PENICILLIN G] | 1.56 (≈ 4.67 µM) | 1.56 (≈ 4.67 µM) | 6.25 (≈ 18.7 µM) | 6.25 (≈ 18.7 µM) | 1.56 (≈ 4.67 µM) | 3.12 (≈ 9.35 µM)
32 | CN(C)[C@@H]1C(O)=C(C(N)=O)C(=O)[C@@]2(O)C(O)=C3C(=O)c4c(O)cccc4[C@@](C)(O)[C@H]3C[C@@H]12 [TETRACYCLINE] | 1.56 (≈ 3.51 µM) | 1.56 (≈ 3.51 µM) | 6.25 (≈ 14.1 µM) | 1.56 (≈ 3.51 µM) | 0.78 (≈ 1.76 µM) | 1.56 (≈ 3.51 µM)
33 | CN[C@H](CC(C)C)C(=O)N[C@H]1C(=O)N[C@@H](CC(N)=O)C(=O)N[C@H]2C(=O)N[C@H]3C(=O)N[C@H](C(=O)N[C@H](C(=O)O)c4cc(O)cc(O)c4-c4cc3ccc4O)[C@H](O)c3ccc(c(Cl)c3)Oc3cc2cc(c3O[C@@H]2O[C@H](CO)[C@@H](O)[C@H](O)[C@H]2O[C@H]2C[C@](C)(N)[C@H](O)[C@H](C)O2)Oc2ccc(cc2Cl)[C@H]1O.Cl [VANCOMYCIN HYDROCHLORIDE] | 0.78 | 0.39 | > 50 | > 50 | 1.56 | > 50
